The record followed here is US20100297256A1, “METHODS AND COMPOSITIONS FOR INHIBITING INTEGRINS USING TELLURIUM-CONTAINING COMPOUNDS” (priority 2007, published 2010).

In experiment [1] the test system is chick chorioallantoic membrane. Put plainly: Chick chorioallantoic membrane (CAM) angiogenesis assay. The format is in vivo. As to conditions: 5 μg/ml combined with ECGS 50 μg/ml, 3 days. As to the method: Collagen I solution was prepared by mixing 1.8 ml of collagen I, 4.14 μl of […] NaOH and 0.2 ml of 10×PBS/200 mM HEPES (pH 7.4). 10 μl of a mixture containing 0.1 ml of the collagen I solution and 0.2 ml of PBS either with or without AS101 (5 μg/ml) or SAS (5 μg/ml) was loaded onto a quarter piece of a Thermonox disc and gelled by warming to room temperature for 15 minutes. The disc was then applied to the chorioallantoic membrane of a 10-days-old embryo, following preparation of the eggs by removing 2 ml of albumin from the 3-days-old embryo and by “opening a window” to the 7-day-old embryo. ECGS (50 μg/ml) in PBS was used to induce angiogenesis and 5 μg/ml of AS101 or SAS were mixed with ECGS. After 3-days incubation, the negative or positive response was assessed under a binocular. Positive response, namely the appearance of a typical spokewheel pattern of new blood vessels around the loaded samples, was determined by a blinded observer. Assays for each test sample were carried out three times, and each experiment contains 10 to 12 eggs/data point.

A further experiment deals with B16F10 melanoma cells. Description: Tumor growth in vivo on CAM. Set-up: species or system murine. As to conditions: 5 μg daily, 7 days. How it is done: B16F10 melanoma cells (10^6 cells/[…]) in Matrigel were added directly onto the CAM of the 7-days-old embryo (embryos were prepared as described hereinabove). AS101 and SAS (5 μg) were added daily. After a 7-days incubation, with treatment performed each day (PBS, AS101 or SAS), tumors were excised and weighed. Formalin-fixed tumor tissues were paraffin embedded, sectioned at 10 μm, and stained with hematoxylin and eosin (H&E) for examination of tumor cell proliferation and vessel density.

The subject of experiment [2] is SVEC4-10 endothelial cells. Put plainly: Tube formation assay, SVEC4-10. Type of experiment: cell-based, murine. As to conditions: SVEC4-10 on Matrigel, 3 hours. As to the method: Plates (48 wells) were coated with 150 μl of Matrigel and incubated at 37° C. for 1 hour to promote gelling. Svec4-10 or HUVEC cells (40,000 cells) in 0.5 ml of serum-free DMEM with varying concentration of AS101 or SAS were added to each well. For positive control, ECGS was added at a concentration of 50 μg/ml. All samples were performed in sextuplicate. After 3 hours incubation, the plates were fixed with methanol and stained with crystal violet. Randomly chosen fields were photographed and density of tube formation was analyzed by imageJ.

The subject of experiment [3] is SVEC4-10 cells. Put plainly: "Scratch" wound closure assay. Type of experiment: cell-based, murine. Conditions: 1 μg/ml, ECGS 100 μg/ml, cells counted at 12 hours. How it is done: Confluent Svec4-10 monolayers in 6 mm plates were “scratch” wounded using the tip of a universal blue pipette tip and rinsed with PBS. AS101 or SAS (1 μg/ml final concentration) or ECGS (100 μg/ml) were added to the plates containing serum-free DMEM. The plates were incubated at 37° C. and fixed and stained at several time points. Migrated cells at 12 hours were counted along the scratch. The centers of plates at all times were photographed for presented data. The experiment was repeated three times.

Experiment [4] has as its system SVEC4-10 cells. Put plainly: Cell attachment assay, SVEC4-10. The format is cell-based, murine. As to the method: (§1) The cell attachment assays were performed in sextuplicate in 96-well plates. The 1 μg of C16 or AG73 peptide in 60 μl double-distilled water was added to each well, and this volume was allowed to air dry overnight in a biosafety hood at room temperature (or fibronectin 20 ng/80 μl for 1 hour at 37° C.). Thereafter, nonspecific binding sites of the tissue culture plastic were blocked by adding 200 μl of 1% bovine serum albumin (BSA) in PBS for 1 hour at 37° C. LAN-1, B16F10 and SVEC4-10 cells were harvested by agitation, washed three times in serum-free DMEM and resuspended in 1% BSA-DMEM. After 20 minutes incubation in 1% BSA in a tube, cells were washed and resuspended in 0.1% BSA. The cells were counted using a hemocytometer and brought to a final cell count of 1×10^6/ml in the 0.1% BSA medium. Cells were divided into tubes and each tube was treated with one of the following in DMEM: ECGS (endothelial cell growth supplement) (50 μg/ml), AS101 (1-5 μg/ml), SAS (1-5 μg/ml), ECGS (50 μg/ml)+SAS (1-5 μg/ml), ECGS (50 μg/ml)+AS101 (1-5 μg/ml), 10% serum, 10% serum+AS101 (1-5 μg/ml) or 10% serum+SAS (1-5 μg/ml).
(§2) Next, 150 μl of the treated cell suspension was added to each well (20,000 cells/well), which had been coated with peptides, and incubated for 50 minutes at 37° C. After 50 minutes, the unattached cells were removed by aspiration and the remaining attached cells were fixed and stained by crystal violet. 100 μl aliquot of 10% SDS was thereafter added to each well for cell lysis and dye release and absorption was read with a TECAN spectrophotometer at 570 nm.
(§3) Attached cells were washed with PBS without Ca^+2/Mg^+2. 100 μl of 0.2% crystal violet in 20% methanol was thereafter added and the cells were incubated for 10 minutes at room temperature. At the end of incubation time, cells were washed twice with double-distilled water and 100 μl of 10% SDS was added. Dye bound to the cell is released by SDS and the absorption by the dye is measured by colorimetry at 570 nm. The amount of stained cells is then considered to be proportional to the measured absorption by the dye

In a further experiment the test system is LAN-1 cells. Put plainly: Cell attachment assay, LAN-1. The format is cell-based, human. As to conditions: for cell attachment to fibronectin: LAN-1; for cell attachment to C16 and AG73 peptides: LAN-1, data not shown, compared with SVEC4-10. How it is done: as §1, §2, §3
A further experiment deals with BV-2 cells. Put plainly: Cell attachment assay, BV-2. Type of experiment: cell-based, murine.
The test system of another experiment is RAW cells. Description: Cell attachment assay, RAW. Type of experiment: cell-based.
Another experiment deals with B16F10 cells. Put plainly: Cell attachment assay, B16F10. Type of experiment: cell-based, murine. Conditions: B16F10, data not shown, compared with SVEC4-10. How it is done:
as §1, with “Cells were divided into tubes and each tube was treated with one of the following in DMEM: ECGS (endothelial cell growth supplement) (50 μg/ml), AS101 (1-5 μg/ml), SAS (1-5 μg/ml), ECGS (50 μg/ml)+SAS (1-5 μg/ml), ECGS (50 μg/ml)+AS101 (1-5 μg/ml), 10% serum, 10% serum+AS101 (1-5 μg/ml) or 10% serum+SAS (1-5 μg/ml).” left out
Next, 150 μl of the treated cell suspension was added to each well (20,000 cells/well), which had been coated with peptides, and incubated for 50 minutes at 37° C. […] 100 μl aliquot of 10% SDS was thereafter added to each well for cell lysis and dye release and absorption was read with a TECAN spectrophotometer at 570 nm.
Attached cells were washed with PBS without Ca^+2/Mg^+2. […] Dye bound to the cell is released by SDS and the absorption by the dye is measured by colorimetry at 570 nm. The amount of stained cells is then considered to be proportional to the measured absorption by the dye

Another experiment deals with integrin β subunits. Put plainly: Multiple anti-integrin antibody binding assay, β subunits. Type of experiment: cell-based. Conditions: SVEC cells. How it is done: The specificity of tellurium-containing compounds to integrins was tested by examining the effect of AS101 and SAS on the attachment of SVEC cells to specific anti-integrin antibodies. Commercially available kits (R&D Biosystems) with anti-integrin coated wells were used, and attachment was determined according to the manufacturer's instructions.

Molecules are shown by their SMILES.

As for `O=C1O[Te]23OC(=O)C(O2)C2O[Te]4(OC(=O)C(O4)C1O3)OC2=O` [SAS, [TeO4(COCH)2]2], the “angiogenic capability of ECGS” value in experiment [1] is listed as “reduced the angiogenic capability of ECGS to baseline levels”. Also, the “tumor growth and weight on chorioallantoic membrane” value in the experiment on B16F10 melanoma cells is “reduced tumor growth and weight”. In addition, the “number of tubes formed” value in [2] is on record as “reduced the number of tubes formed”. Besides, the “ECGS-induced scratch wound repair by cell migration” value in the experiment with SVEC4-10 cells [3] is on record as “reduce ECGS-induced scratch wound repair”. For the same compound, in the experiment on SVEC4-10 cells [4], the “cell attachment to AG73 peptide” value is “slightly decrease”. Besides, the “cell attachment to C16 peptide” value in the experiment on SVEC4-10 cells [4] is on record as “slightly decrease”. In addition, the “cell attachment to fibronectin” value in the experiment with SVEC4-10 cells [4], with LAN-1 cells, in the experiment with BV-2 cells and in the experiment with RAW cells was “inhibited cell attachment to fibronectin” throughout. In addition, the “cell attachment to C16 and AG73 peptides” value in the experiment on LAN-1 cells and in the experiment with B16F10 cells was “similar” in each case. The “cell attachment to antibodies against integrin β subunits” value in the experiment on integrin β subunits was “considerable inhibition”.

On to `Cl[TeH]1(Cl)(Cl)OCCO1` [AS101, ammonium trichloro(dioxyethylene-O,O′)tellurate], for which the “angiogenic capability of ECGS” value in experiment [1] is on record as “reduced the angiogenic capability of ECGS to baseline levels”. Further, in the experiment with B16F10 melanoma cells, the “tumor growth and weight on chorioallantoic membrane” value was “reduced tumor growth and weight”. For the same compound, the “number of tubes formed” value in experiment [2] is “reduced the number of tubes formed”. In addition, the “ECGS-induced scratch wound repair by cell migration” value in the experiment on SVEC4-10 cells [3] is “reduce ECGS-induced scratch wound repair”. Besides, the “cell attachment to AG73 peptide” value in the experiment with SVEC4-10 cells [4] was “slightly decrease”. For the same compound, the “cell attachment to C16 peptide” value in the experiment on SVEC4-10 cells [4] is “slightly decrease”. The “cell attachment to fibronectin” value with SVEC4-10 cells [4], in the experiment on LAN-1 cells, with BV-2 cells and in the experiment with RAW cells was “inhibited cell attachment to fibronectin” throughout. The “cell attachment to C16 and AG73 peptides” value in the experiment on LAN-1 cells and in the experiment with B16F10 cells was “similar” in each case. Further, the “cell attachment to antibodies against integrin β subunits” value in the experiment with integrin β subunits was “considerable inhibition”.
